In patent US9802937B2, “Substituted pyrazolo{4,3-D}pyrimidines as kinase inhibitors” (ORIGENIS GMBH, priority 2011, dated 2017):
pIC50, pKi: −log10 of the molar value.

Legend:
SYK kinase = molecular target: T1, SYK kinase (Homo sapiens, UniProt P43405); assay: SYK Assay (OMNIA KINASE ASSAY, SOX peptide fluorescence); format: biochemical; conditions: apparent Ki calculated from the IC50 using the Cheng-Prusoff equation; 1 mM ATP, 30° C.; read-out: SYK Activities: Ki
T1 construct: purchased Invitrogen, Carlsbad
How it was run: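 Continuous Omnia assay: SYK phosphorylation of SOX-labelled Tyr 7 peptide (10 µM) with 1 mM ATP and 0.2 mM DTT at 30 °C. Fluorescence (ex 360/em 485 nm) read every 30 s for 30 min. Reaction velocity versus inhibitor concentration gives IC50, converted to apparent Ki by Cheng-Prusoff.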

LRRK2 = LRRK2 (Homo sapiens, UniProt Q5S007); assay: LRRK2-LRRK2 G2019S-Assay (LanthaScreen Eu Kinase Binding Assay); conditions: 5 nM LRRK2 or their mutants, 10 nM tracer 236, RT 1 h; read-out: LRRK2 Activities: IC50
Protocol: In the assay LanthaScreen™ Eu Kinase Binding Assay by Invitrogen Corporation (Carlsbad) the effect of invention of a compound on the phosphorylation is determined by measurement of fluorescence intensity emission ratio based on the binding and displacement of a proprietary, Alexa Fluor® 647-labeled, ATP-competitive kinase inhibitor scaffold (kinase tracer) to the kinase of interest. Binding of the tracer to the kinase is detected using a europium-labeled anti-tag antibody, which binds to the kinase of interest. Simultaneous binding of both the tracer and antibody to the kinase results in a high degree of FRET (fluorescence resonance energy transfer) from the europium (Eu) donor fluorophore to the Alexa Fluor® 647 acceptor fluorophore on the kinase tracer. Binding of an inhibitor to the kinase competes for binding with the tracer, resulting in a loss of FRET. The fluorescence intensity ratio is directly proportional to the amount of peptide phosphorylation.
To the wells of an 384 well small volume plate (Greiner, Frickenhausen) are added (i) the compound under test in 5% DMSO/distilled water (5 μl), (ii) 5 μl of the kinase antibody mixture resulting in a final concentration 5 nM LRRK2 or their mutants, 2 nM EU-Anti-GST antibody in 1× kinase buffer A. The reaction was started with addition of (iii) 5 μl resulting in a final concentration of 10 nM tracer 236. The assay plate was incubated at RT for 1 h and fluorescence intensitiy readings were collected using a TECAN M1000 at two wavelengthes of λex 340/λem 615 nm and λex 340/λm 665 nm with a delay time of 100 μs and an integration time of 200 μs after 60 minutes. The emission ratio was calculated by division of the acceptor/tracer emission ([…]) by the antibody/donor emission ([…]). The inhibitor concentration was plotted versus the emission ratio to determine the IC50 using XLFit 5.0 (IDBS, Guildford) to fit to a sigmoidal dose response curve with a variable slope.

LRRK2, sequence (Q5S007 970-2527 limits assumed): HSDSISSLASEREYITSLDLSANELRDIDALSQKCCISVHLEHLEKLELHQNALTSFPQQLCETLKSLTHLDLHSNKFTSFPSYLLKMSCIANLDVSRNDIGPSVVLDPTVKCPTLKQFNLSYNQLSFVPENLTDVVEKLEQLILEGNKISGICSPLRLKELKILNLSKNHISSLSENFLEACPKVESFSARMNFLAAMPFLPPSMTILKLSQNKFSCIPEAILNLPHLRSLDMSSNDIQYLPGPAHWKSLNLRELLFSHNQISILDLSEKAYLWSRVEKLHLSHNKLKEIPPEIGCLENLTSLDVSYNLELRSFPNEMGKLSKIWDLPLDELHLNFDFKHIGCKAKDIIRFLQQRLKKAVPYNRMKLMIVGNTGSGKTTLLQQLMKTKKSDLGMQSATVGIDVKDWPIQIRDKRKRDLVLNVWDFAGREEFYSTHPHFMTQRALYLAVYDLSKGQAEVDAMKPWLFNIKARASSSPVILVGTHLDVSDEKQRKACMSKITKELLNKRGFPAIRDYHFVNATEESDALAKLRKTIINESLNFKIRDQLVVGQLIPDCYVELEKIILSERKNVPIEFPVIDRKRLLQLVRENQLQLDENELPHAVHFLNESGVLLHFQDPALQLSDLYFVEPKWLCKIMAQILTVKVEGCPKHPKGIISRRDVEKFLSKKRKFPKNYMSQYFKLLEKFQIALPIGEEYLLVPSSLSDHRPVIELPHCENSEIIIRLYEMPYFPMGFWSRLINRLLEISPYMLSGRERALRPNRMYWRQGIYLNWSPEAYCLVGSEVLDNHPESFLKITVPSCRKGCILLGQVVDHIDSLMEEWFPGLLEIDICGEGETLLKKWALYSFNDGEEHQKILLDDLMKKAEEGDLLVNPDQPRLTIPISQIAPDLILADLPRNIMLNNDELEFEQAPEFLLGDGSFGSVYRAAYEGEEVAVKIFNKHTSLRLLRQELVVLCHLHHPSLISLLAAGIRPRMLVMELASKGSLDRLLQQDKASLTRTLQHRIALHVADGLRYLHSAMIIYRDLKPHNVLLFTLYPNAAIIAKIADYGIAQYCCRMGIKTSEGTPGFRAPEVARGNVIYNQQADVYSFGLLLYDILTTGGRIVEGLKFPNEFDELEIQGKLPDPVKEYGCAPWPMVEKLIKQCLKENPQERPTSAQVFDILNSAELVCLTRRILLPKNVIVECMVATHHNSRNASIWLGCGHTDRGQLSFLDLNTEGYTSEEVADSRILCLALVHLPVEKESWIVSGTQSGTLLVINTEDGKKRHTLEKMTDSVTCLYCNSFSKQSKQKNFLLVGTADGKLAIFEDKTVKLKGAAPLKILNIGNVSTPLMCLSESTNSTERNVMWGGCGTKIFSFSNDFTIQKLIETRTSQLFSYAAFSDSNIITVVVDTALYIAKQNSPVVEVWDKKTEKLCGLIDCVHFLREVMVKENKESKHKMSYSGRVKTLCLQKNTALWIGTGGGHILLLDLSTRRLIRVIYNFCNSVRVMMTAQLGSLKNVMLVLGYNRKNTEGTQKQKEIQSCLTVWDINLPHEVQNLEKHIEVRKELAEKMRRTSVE

SMILES	pKi (SYK kinase)	pIC50 (LRRK2)
CN1CCC(c2nc(Nc3ccc4cn[nH]c4c3)c3[nH]ncc3n2)CC1 [Example #27, N-(1H-indazol-6-yl)-5-(1-methylpiperidin-4-yl)-1H-pyrazolo[4,3-d]pyrimidin-7-amine]	7.00 to 8.00	6.00 to 7.00
CN1CCC(c2nc(Nc3ccc(N(C)C)cc3)c3[nH]ncc3n2)CC1 [Example #28, N1,N1-dimethyl-N4-(5-(1-methylpiperidin-4-yl)-1H-pyrazolo[4,3-d]pyrimidin-7-yl)benzene-1,4-diamine]	7.00 to 8.00	6.00 to 7.00
COc1ccc(Nc2nc(-c3ccc(N4CCCC4)nc3)nc3cn[nH]c23)cc1OC [Example #32, N-(3,4-dimethoxyphenyl)-5-(6-(pyrrolidin-1-yl)pyridin-3-yl)-1H-pyrazolo[4,3-d]pyrimidin-7-amine]	7.00 to 8.00	6.00 to 7.00
c1cc(N2CCOCC2)ccc1Nc1nc(-c2ccc(N3CCCC3)nc2)nc2cn[nH]c12 [Example #33, N-(4-morpholinophenyl)-5-(6-(pyrrolidin-1-yl)pyridin-3-yl)-1H-pyrazolo[4,3-d]pyrimidin-7-amine]	> 8.00	6.00 to 7.00
c1ccc(-c2nc(Nc3ccc4cn[nH]c4c3)c3[nH]ncc3n2)cc1 [Example #36, N-(1H-indazol-6-yl)-5-phenyl-1H-pyrazolo[4,3-d]pyrimidin-7-amine]	> 8.00	> 8.00
O=C1COc2ccc(Nc3nc(-c4ccccc4)nc4cn[nH]c34)cc2N1 [Example #37, 6-((5-phenyl-1H-pyrazolo[4,3-d]pyrimidin-7-yl)amino)-2H-benzo[b][1,4]oxazin-3(4H)-one]	7.00 to 8.00	7.00 to 8.00
COc1ccc(-c2nc(Nc3ccc4[nH]ncc4c3)c3[nH]ncc3n2)cc1OC [Example #40, 5-(3,4-dimethoxyphenyl)-N-(1H-indazol-5-yl)-1H-pyrazolo[4,3-d]pyrimidin-7-amine]	7.00 to 8.00	6.00 to 7.00
O=C1COc2ccc(Nc3nc(-c4ccc(N5CCCC5)nc4)nc4cn[nH]c34)cc2N1 [Example #47, 6-((5-(6-(pyrrolidin-1-yl)pyridin-3-yl)-1H-pyrazolo[4,3-d]pyrimidin-7-yl)amino)-2H-benzo[b][1,4]oxazin-3(4H)-one]	7.00 to 8.00	6.00 to 7.00
c1cc(Nc2nc(-c3ccc(N4CCCC4)nc3)nc3cn[nH]c23)n[nH]1 [Example #48, N-(1H-pyrazol-3-yl)-5-(6-(pyrrolidin-1-yl)pyridin-3-yl)-1H-pyrazolo[4,3-d]pyrimidin-7-amine]	6.00 to 7.00	6.00 to 7.00
CN1CCC(c2nc(Nc3ccc4[nH]ncc4c3)c3[nH]ncc3n2)CC1 [Example #50, N-(1H-indazol-5-yl)-5-(1-methylpiperidin-4-yl)-1H-pyrazolo[4,3-d]pyrimidin-7-amine]	7.00 to 8.00	6.00 to 7.00
COc1ccc(Nc2nc(C3CCN(C)CC3)nc3cn[nH]c23)cc1OC [Example #51, N-(3,4-dimethoxyphenyl)-5-(1-methylpiperidin-4-yl)-1H-pyrazolo[4,3-d]pyrimidin-7-amine]	7.00 to 8.00	6.00 to 7.00
COc1ccc(-c2nc(Nc3ccc(N4CCOCC4)cc3)c3[nH]ncc3n2)cc1 [Example #59, 5-(4-methoxyphenyl)-N-(4-morpholinophenyl)-1H-pyrazolo[4,3-d]pyrimidin-7-amine]	> 8.00	7.00 to 8.00
COc1cccc(-c2nc(Nc3ccc(OC)c(OC)c3)c3[nH]ncc3n2)c1 [Example #60, N-(3,4-dimethoxyphenyl)-5-(3-methoxyphenyl)-1H-pyrazolo[4,3-d]pyrimidin-7-amine]	> 8.00	6.00 to 7.00
COc1cccc(-c2nc(Nc3ccc(N4CCOCC4)cc3)c3[nH]ncc3n2)c1 [Example #61, 5-(3-methoxyphenyl)-N-(4-morpholinophenyl)-1H-pyrazolo[4,3-d]pyrimidin-7-amine]	> 8.00	6.00 to 7.00
COc1cccc(-c2nc(Nc3ccc(N(C)C)cc3)c3[nH]ncc3n2)c1 [Example #63, N1-(5-(3-methoxyphenyl)-1H-pyrazolo[4,3-d]pyrimidin-7-yl)-N4,N4-dimethylbenzene-1,4-diamine]	> 8.00	6.00 to 7.00
c1ccc(-c2nc(Nc3ccc4c(c3)NCCO4)c3[nH]ncc3n2)cc1 [Example #64, N-(5-phenyl-1H-pyrazolo[4,3-d]pyrimidin-7-yl)-3,4-dihydro-2H-benzo[b][1,4]oxazin-6-amine]	> 8.00	7.00 to 8.00
Oc1cccc(Nc2nc(-c3ccccc3)nc3cn[nH]c23)c1 [Example #65, 3-((5-phenyl-1H-pyrazolo[4,3-d]pyrimidin-7-yl)amino)phenol]	7.00 to 8.00	6.00 to 7.00
COc1ccc(-c2nc(Nc3ccc(N4CCN(C)CC4)cc3)c3[nH]ncc3n2)cc1 [Example #66, 5-(4-methoxyphenyl)-N-(4-(4-methylpiperazin-1-yl)phenyl)-1H-pyrazolo[4,3-d]pyrimidin-7-amine]	> 8.00	6.00 to 7.00
COc1cccc(-c2nc(Nc3ccc4cn[nH]c4c3)c3[nH]ncc3n2)c1 [Example #67, N-(1H-indazol-6-yl)-5-(3-methoxyphenyl)-1H-pyrazolo[4,3-d]pyrimidin-7-amine]	> 8.00	6.00 to 7.00
c1csc(-c2nc(Nc3ccc(N4CCOCC4)cc3)c3[nH]ncc3n2)c1 [Example #69, N-(4-morpholinophenyl)-5-(thiophen-2-yl)-1H-pyrazolo[4,3-d]pyrimidin-7-amine]	> 8.00	7.00 to 8.00

Now from value to compound:

pKi (SYK kinase)	pIC50 (LRRK2)	SMILES
> 8.00	7.00 to 8.00	CN(C)c1ccc(Nc2nc(-c3cccs3)nc3cn[nH]c23)cc1 [Example #71, N1,N1-dimethyl-N4-(5-(thiophen-2-yl)-1H-pyrazolo[4,3-d]pyrimidin-7-yl)benzene-1,4-diamine]
> 8.00	7.00 to 8.00	COc1ccc(Nc2nc(-c3ccsc3)nc3cn[nH]c23)cc1OC [Example #72, N-(3,4-dimethoxyphenyl)-5-(thiophen-3-yl)-1H-pyrazolo[4,3-d]pyrimidin-7-amine]
> 8.00	7.00 to 8.00	c1cc(-c2nc(Nc3ccc(N4CCOCC4)cc3)c3[nH]ncc3n2)cs1 [Example #73, N-(4-morpholinophenyl)-5-(thiophen-3-yl)-1H-pyrazolo[4,3-d]pyrimidin-7-amine]
> 8.00	7.00 to 8.00	CN(C)c1ccc(Nc2nc(-c3ccsc3)nc3cn[nH]c23)cc1 [Example #75, N1,N1-dimethyl-N4-(5-(thiophen-3-yl)-1H-pyrazolo[4,3-d]pyrimidin-7-yl)benzene-1,4-diamine]
> 8.00	7.00 to 8.00	c1cc(-c2nc(Nc3ccc4cn[nH]c4c3)c3[nH]ncc3n2)cs1 [Example #76, N-(1H-indazol-6-yl)-5-(thiophen-3-yl)-1H-pyrazolo[4,3-d]pyrimidin-7-amine]
7.00 to 8.00	7.00 to 8.00	c1cc(-c2nc(Nc3cc(C4CC4)[nH]n3)c3[nH]ncc3n2)cs1 [Example #77, N-(5-cyclopropyl-1H-pyrazol-3-yl)-5-(thiophen-3-yl)-1H-pyrazolo[4,3-d]pyrimidin-7-amine]
> 8.00	6.00 to 7.00	COc1ccc(-c2nc(Nc3ccc(N(C)C)cc3)c3[nH]ncc3n2)cc1 [Example #78, N1-(5-(4-methoxyphenyl)-1H-pyrazolo[4,3-d]pyrimidin-7-yl)-N4,N4-dimethylbenzene-1,4-diamine]
> 8.00	7.00 to 8.00	COc1ccc(-c2nc(Nc3ccc4cn[nH]c4c3)c3[nH]ncc3n2)cc1 [Example #79, N-(1H-indazol-6-yl)-5-(4-methoxyphenyl)-1H-pyrazolo[4,3-d]pyrimidin-7-amine]
7.00 to 8.00	6.00 to 7.00	COc1ccc(-c2nc(Nc3cccc(O)c3)c3[nH]ncc3n2)cc1 [Example #80, 3-((5-(4-methoxyphenyl)-1H-pyrazolo[4,3-d]pyrimidin-7-yl)amino)phenol]
7.00 to 8.00	6.00 to 7.00	COc1cccc(-c2nc(Nc3cccc(O)c3)c3[nH]ncc3n2)c1 [Example #81, 3-((5-(3-methoxyphenyl)-1H-pyrazolo[4,3-d]pyrimidin-7-yl)amino)phenol]
> 8.00	> 8.00	c1csc(-c2nc(Nc3ccc4cn[nH]c4c3)c3[nH]ncc3n2)c1 [Example #82, N-(1H-indazol-6-yl)-5-(thiophen-2-yl)-1H-pyrazolo[4,3-d]pyrimidin-7-amine]
